# Reference: US7745443B2 (Sanofi-Aventis Deutschland GmbH, priority 2002, dated 2010)
# pIC50: −log10 of the molar value.
# Molecular target: binding of human von Willebrand factor to europium (Eu)-chelate-labeled chimeric GPIb-Fc protein (Homo sapiens, UniProt P04275+P07359)
# Assay: Von Willebrand Factor-GPIb Binding Assay (Eu based, botrocetin-induced)
# Conditions: botrocetin-induced binding of Eu-chelate-labeled chimeric GPIb-Fc to immobilized human vWF; IC50 values as specified in the examples
# Description: Activity of compounds of the formula I was shown by an Eu based binding assay in which the binding of human von Willebrand factor to an europium (Eu)-chelate-labeled chimeric GPIb-Fc protein was induced by botrocetin. The preparation of the Eu-chelate-labeled chimeric GPIb-Fc protein is described in detail in a patent application (Fukuchi et al., EP1074564).
# A TBS (Tris buffered saline, 20 mM Tris-HCl (pH 7.4) and 0.15 M NaCl) (50 microl) containing human von Willebrand factor (2.5 microg/ml) was added to each well of 1 96-well plate, and the von Willebrand factor was immobilized as a solid phase overnight at 4 dec. Each well was washed once with TBS (150 microl) and blocked with TBS containing 5% BSA (bovine serum albumin) for about 3 hours. Each well of the plate was washed twice with TBS (150 microl), and then added with 25 microl of an assay buffer (Assay Buffer, 1244-106, produced by Wallac) with the compounds, further added with the assay buffer (25 microl) containing the europium (Eu)-chelate-labeled chimeric GPIb-Fc protein (100 ng/ml), labeled with Eu-N1-ITC (Eu-chelate of N^1-(p-isothiocyanatebenzyl)-diethlenetriamine-N^1,N^2,N^3,N^3-tetraacetic acid, 1244-302, produced by Wallac) and botrocetin (500 ng/ml), and left stand at room temperature for 2 hours. The preparation of the Eu-chelate-labeled chimeric GPIb-Fc protein is described in detail in a patent application (Fukuchi et al., EP1074564). Each well of the plate was washed 5 times with TBS (150 microl) containing 0.05% Tween-20, then added with 100 microl of a fluorescence enhancement buffer (Enhancement Solution, 1244-104, produced by Wallac), and shaken for 1 minute. Then, the amount of europium (Eu) was measured by using a 1420 ARVO multi-label counter (produced by Wallac, measurements time: 1 second).
# Chain of binding of human von Willebrand factor to europium (Eu)-chelate-labeled chimeric GPIb-Fc protein (P04275 764-2813 limits assumed, change not shown): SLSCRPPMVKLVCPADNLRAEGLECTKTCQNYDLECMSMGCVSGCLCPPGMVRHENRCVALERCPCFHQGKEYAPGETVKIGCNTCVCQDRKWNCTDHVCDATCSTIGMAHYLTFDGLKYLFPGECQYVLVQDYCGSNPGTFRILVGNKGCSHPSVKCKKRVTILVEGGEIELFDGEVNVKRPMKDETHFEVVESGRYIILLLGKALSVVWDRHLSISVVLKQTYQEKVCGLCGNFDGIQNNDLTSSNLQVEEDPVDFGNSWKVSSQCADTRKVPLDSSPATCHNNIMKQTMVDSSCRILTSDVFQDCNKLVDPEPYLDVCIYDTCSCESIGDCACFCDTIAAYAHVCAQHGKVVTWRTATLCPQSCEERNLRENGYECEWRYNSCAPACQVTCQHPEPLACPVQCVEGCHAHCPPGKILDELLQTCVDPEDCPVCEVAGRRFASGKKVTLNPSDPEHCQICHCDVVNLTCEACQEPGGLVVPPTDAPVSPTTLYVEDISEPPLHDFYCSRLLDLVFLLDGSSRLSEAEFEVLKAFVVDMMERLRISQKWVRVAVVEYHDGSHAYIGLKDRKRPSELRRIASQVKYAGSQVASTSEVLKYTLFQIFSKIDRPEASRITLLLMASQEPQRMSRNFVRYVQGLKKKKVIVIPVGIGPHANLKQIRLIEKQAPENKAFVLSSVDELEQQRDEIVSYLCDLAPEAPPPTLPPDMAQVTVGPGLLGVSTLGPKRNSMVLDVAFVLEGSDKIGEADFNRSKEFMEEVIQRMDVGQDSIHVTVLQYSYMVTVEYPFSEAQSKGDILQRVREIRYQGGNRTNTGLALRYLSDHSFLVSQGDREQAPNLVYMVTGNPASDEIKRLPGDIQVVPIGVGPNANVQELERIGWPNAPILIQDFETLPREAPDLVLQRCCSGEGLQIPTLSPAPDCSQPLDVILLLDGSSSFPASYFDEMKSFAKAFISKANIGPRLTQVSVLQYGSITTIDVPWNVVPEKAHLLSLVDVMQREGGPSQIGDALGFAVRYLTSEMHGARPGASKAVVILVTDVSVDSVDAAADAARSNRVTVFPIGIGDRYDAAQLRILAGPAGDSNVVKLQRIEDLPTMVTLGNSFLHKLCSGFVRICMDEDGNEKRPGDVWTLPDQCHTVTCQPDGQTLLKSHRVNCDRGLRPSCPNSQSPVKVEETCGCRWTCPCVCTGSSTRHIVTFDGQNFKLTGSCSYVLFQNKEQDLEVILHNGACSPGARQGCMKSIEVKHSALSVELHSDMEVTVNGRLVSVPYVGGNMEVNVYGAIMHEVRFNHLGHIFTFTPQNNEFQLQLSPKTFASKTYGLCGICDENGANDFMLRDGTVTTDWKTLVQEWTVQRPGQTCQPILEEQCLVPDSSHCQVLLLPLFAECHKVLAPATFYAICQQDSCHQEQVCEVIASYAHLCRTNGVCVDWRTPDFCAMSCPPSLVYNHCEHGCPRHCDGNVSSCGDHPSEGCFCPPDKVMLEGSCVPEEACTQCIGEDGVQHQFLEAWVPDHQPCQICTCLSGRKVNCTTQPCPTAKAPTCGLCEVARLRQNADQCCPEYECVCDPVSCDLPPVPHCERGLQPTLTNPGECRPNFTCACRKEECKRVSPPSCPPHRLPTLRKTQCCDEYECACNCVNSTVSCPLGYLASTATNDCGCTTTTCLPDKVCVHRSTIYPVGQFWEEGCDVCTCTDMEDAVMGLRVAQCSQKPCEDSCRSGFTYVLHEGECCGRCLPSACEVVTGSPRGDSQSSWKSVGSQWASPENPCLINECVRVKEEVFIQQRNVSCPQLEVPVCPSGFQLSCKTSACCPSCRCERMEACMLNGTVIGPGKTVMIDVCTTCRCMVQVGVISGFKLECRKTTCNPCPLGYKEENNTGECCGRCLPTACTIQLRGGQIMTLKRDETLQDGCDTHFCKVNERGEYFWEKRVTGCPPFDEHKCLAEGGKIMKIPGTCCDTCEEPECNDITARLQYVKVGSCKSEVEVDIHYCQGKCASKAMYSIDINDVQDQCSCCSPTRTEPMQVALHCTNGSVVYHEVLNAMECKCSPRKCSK
# Chain of binding of human von Willebrand factor to europium (Eu)-chelate-labeled chimeric GPIb-Fc protein (P07359 17-335 limits assumed, change not shown): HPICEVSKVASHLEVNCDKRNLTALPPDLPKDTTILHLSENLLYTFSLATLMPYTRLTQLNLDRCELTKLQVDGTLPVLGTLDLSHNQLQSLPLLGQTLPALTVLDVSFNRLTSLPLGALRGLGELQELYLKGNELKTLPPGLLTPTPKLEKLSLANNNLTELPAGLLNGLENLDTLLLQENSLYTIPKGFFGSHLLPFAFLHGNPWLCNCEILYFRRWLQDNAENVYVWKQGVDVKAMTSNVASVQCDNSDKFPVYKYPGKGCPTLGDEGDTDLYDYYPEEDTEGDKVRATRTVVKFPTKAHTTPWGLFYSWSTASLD
row,Compound,pIC50
1,"Cc1cc(NCc2ccc(NC(=O)c3ccc4nc(C)cc(N)c4c3)cc2)nc(N)n1 [Example 10, 2-Amino-4-[(4-{[(4-amino-2-methyl-6-quinolinyl)carbonyl]amino}benzyl)amino]-6-methylpyrimidine]",4.16
2,"Cc1cc(N)c2cc(C(=O)Nc3ccc(NC(=O)c4cccnc4N)cc3)ccc2n1 [Example 21, 4-Amino-N-(4-{[(2-amino-3-pyridinyl)carbonyl]amino}phenyl)-2-methyl-6-quinolinecarboxamide]",4.46
3,"Cc1cc(N)c2cc(C(=O)Nc3ccc(NC(=O)c4ccc(O)nc4)cc3)ccc2n1 [Example 23, 4-Amino-N-(4-{[(2-hydroxy-5-pyridinyl)carbonyl]amino}phenyl)-2-methyl-6-quinolinecarboxamide]",4.38
4,"Cc1cc(N)c2cc(C(=O)Nc3ccc(CNC(=O)c4ccnc(Cl)c4)cc3)ccc2n1 [Example 13, 4-Amino-N-[4-({[(2-chloro-4-pyridinyl)carbonyl]amino}methyl)phenyl]-2-methyl-6-quinolinecarboxamide]",4.05
5,"Cc1cc(N)c2cc(C(=O)Nc3cccc(Nc4cc(C)[n+](C)c(N)n4)c3)ccc2n1 [Example 8, 2-Amino-4-[(3-{[(4-amino-2-methyl-6-quinolinyl)carbonyl]amino}phenyl)amino]-1,6-dimethylpyrimidin-1-ium]",4.08
6,"Cc1cc(N)c2cc(C(=O)Nc3ccc(NC(=O)c4ccc(N)nc4)cc3)ccc2n1 [Example 22, 4-Amino-N-(4-{[(2-amino-5-pyridinyl)carbonyl]amino}phenyl)-2-methyl-6-quinolinecarboxamide]",4.95
7,"Cc1cc(N)c2cc(C(=O)Nc3ccc(NC(=O)c4ccccn4)cc3)ccc2n1 [Example 16, 4-Amino-N-{4-[(2-pyridinylcarbonyl)amino]phenyl}-2-methyl-6-quinolinecarboxamide]",4.36
8,"Cc1cc(NCCC(=O)Nc2ccc3nc(C)cc(N)c3c2)nc(N)n1 [Example 1, 3-(2-Amino-6-methyl-pyrimidin-4-ylamino)-N-(4-amino-2-methyl-quinolin-6-yl)-propionamide]",4.61
9,4-Amino-N-(4-{[(2-methyl-1H-benzimidazol-5-yl)carbonyl]amino}phenyl)-2-methyl-6-quinolinecarboxamide [Example 28],5.02
10,"Cc1cc(N)c2cc(C(=O)Nc3ccc(NC(=O)c4cccnc4)cc3)ccc2n1 [Example 17, 4-Amino-N-{4-[(3-pyridinylcarbonyl)amino]phenyl}-2-methyl-6-quinolinecarboxamide]",4.82
11,"Cc1cc(N)c2cc(NC(=O)c3cccc(Nc4cc(C)[n+](C)c(N)n4)c3)ccc2n1 [Example 2, 2-Amino-4-[3-(4-amino-2-methyl-quinolin-6-ylcarbamoyl)-phenylamino]-1,6-dimethyl-pyrimidin-1-ium]",5.05
